Experimental findings from patent US20080227792A1, “3,4-Dihydro-1H-Isoquinoline-2-Carboxylic Acid 5-Aminopyridin-2-Yl Esters” (Novo Nordisk A/S, priority 2005, published 2008) are described below.

Each structure is given as a SMILES string.

Data set [1] concerns the target T1, hormone sensitive lipase (HSL) (Homo sapiens, UniProt Q05469).
T1 construct: made in house
T1 sequence (Q05469 1-1076): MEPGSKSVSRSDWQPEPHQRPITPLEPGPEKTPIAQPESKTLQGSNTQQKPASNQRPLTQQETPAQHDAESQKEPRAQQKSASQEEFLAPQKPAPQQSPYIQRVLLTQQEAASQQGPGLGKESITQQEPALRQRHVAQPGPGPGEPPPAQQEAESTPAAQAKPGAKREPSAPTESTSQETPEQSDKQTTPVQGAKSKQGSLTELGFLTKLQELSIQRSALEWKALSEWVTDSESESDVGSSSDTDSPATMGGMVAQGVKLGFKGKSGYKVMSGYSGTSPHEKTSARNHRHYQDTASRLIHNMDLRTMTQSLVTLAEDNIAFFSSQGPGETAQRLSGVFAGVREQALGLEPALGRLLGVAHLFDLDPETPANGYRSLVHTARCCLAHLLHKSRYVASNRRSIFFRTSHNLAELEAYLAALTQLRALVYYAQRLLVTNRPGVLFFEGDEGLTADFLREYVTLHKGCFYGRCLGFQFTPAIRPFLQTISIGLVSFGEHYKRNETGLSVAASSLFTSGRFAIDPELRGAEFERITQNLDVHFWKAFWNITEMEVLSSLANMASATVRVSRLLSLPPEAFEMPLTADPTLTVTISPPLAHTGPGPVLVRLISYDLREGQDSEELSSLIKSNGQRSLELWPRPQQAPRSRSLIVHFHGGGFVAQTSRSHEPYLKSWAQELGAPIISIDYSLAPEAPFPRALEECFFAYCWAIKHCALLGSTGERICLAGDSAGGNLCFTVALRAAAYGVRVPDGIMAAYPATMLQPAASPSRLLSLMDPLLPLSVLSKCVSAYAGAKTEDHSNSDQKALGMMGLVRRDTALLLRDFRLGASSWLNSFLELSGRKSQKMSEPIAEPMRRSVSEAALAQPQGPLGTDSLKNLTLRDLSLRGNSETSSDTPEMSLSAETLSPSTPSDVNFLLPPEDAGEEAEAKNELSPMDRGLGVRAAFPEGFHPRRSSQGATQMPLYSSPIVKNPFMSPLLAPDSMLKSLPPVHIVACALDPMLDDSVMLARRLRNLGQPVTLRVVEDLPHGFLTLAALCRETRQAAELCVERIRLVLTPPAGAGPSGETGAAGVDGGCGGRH
Briefly: 3190.2: Assay for determination of IC50 value for the inhibition of hormone sensitive lipase. Type of data set: biochemical. To be noted: fluorochrome-labeled triacylglyceride substrate; 30 min pre-incubation at 25° C., 120 min incubation at 37° C.; 4PL fit. The text has this:
Materials. The Hormone-sensitive lipase was provided by Dr. Cecilia Holm, from Lund University Sweden or produced and purified by Novo Nordisk (NN) using the reagents and protocols used by Dr. Holm. The substrates used are: ^3H-labeled triolein (TO) from Amersham, Buckinghamshire, U.K. cat o. TRA191; 5-20 Ci/mmol dissolved in toluene, triolein (Sigma, Cat. No. T-1740), fluorochrome-labeled triacylglyceride (cis-octadec-9-enoic acid 2-[12-(7-nitrobenzo[1,2,5]oxadiazol-4-ylamino)-dodecanoyloxy]-1-cis-octadec-9-enoyloxymethylethyl ester) prepared by Novo Nordisk (NN) by conventional methods, and 1,3-(di[^3H]-stearin), 2-(PEG-Biotin)glycerol prepared in collaboration with Amersham Pharmacia Biotech, UK and described in WO 01/073442. Phosphatidyl choline (PC) and phosphatidyl inositol (PI) are from Sigma (St Luis Mo. cat. Nos. P-3556 and P-5954, respectively). All other reagents are of commercial grade and obtained from various commercial sources.
3190.2: Assay for determination of IC50 value for the inhibition of hormone sensitive lipase by compound. Standard concentrations of compound are 100 μM and 5-fold dilutions (initial concentration corresponding to 10 μM final concentration and 5-fold).
A lipid emulsion with fluorochrome-labeled triacylglyceride and phospholipid is used as substrate with a standard concentration of highly purified HSL (12 μg/mL initial concentration corresponding to 600 ng/mL final concentration). BSA is added as product acceptor. The transfer of the fluorochrome from the lipid phase to the water (BSA) phase changes the fluorescent properties of the fluorochrome. The changes can be monitored on a fluorimeter with an excitation wavelength of 450 nm and an emission wavelength of 545 nm.
Compound and HSL (20 μL compound, 10 μL enzyme and 70 μL PED-BSA buffer) is pre-incubated for 30 min at 25° C. before addition of substrate (100 μL). Amount of formed product is measured after 120 min incubation at 37° C.
Results are given as IC50 values after 4PL fit of obtained activity data.

Turning to `O=C(Oc1ccc(N2C(=O)CC3(CCCC3)CC2=O)cn1)N1CCc2ccccc2C1` [Example 3, 3,4-Dihydro-1H-isoquinoline-2-carboxylic acid 5-(7,9-dioxo-8-azaspiro[4.5]dec-8-yl)pyridin-2-yl ester], the IC50 (as a rule, the point on the concentration scale where inhibition reaches its midpoint) in data set [1] worked out at 40 nM.

With `O=C(Oc1ccc(NC2=NC3(CCCC3)CS2)cn1)N1CCc2ccccc2C1` [Example 4, 3,4-Dihydro-1H-isoquinoline-2-carboxylic acid 5-(3-thia-1-azaspiro[4.4]non-1-en-2-ylamino)-pyridin-2-yl ester], the midpoint of inhibition in data set [1], the IC50, lay at 400 nM.

Take `CC1(C)CC(=O)N(c2ccc(OC(=O)N3CCc4ccccc4C3)nc2)C(=O)C1` [Example 1, 3,4-Dihydro-1H-isoquinoline-2-carboxylic acid 4,4-dimethyl-2,6-dioxo-3,4,5,6-tetrahydro-2H-[1,3′]bi-pyridinyl-6′-yl ester]: the melting point (commonly the temperature, or range, at which the solid turns liquid) lay within 156 to 158 °C. Moreover, in data set [1], the IC50 stood at 400 nM.
